Laboratory results: patent publication US11866430B2, “Naphthyridinone compounds useful as T cell activators” (priority 2018, dated 2024)
Where two headings read alike, the source gives them in different places.

Tests used:
human DGKα = human DGKα (Homo sapiens (Human), UniProt P23743); assay: DGKα LIPGLO assay (extruded liposome substrate); type: biochemical
How it was run: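 Human full-length DGKα, His-tagged and produced in Sf9 cells, assayed at 20 nM (4× stock) on extruded liposomes of PS, 0.25 mM DAG and 2.75 mM PC, preincubated 10 min. Reaction started with 300 μM ATP (stock) and ran 1 h in MOPS pH 7.5/MgCl2/CaCl2/DTT buffer.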

human DGKζ = human DGKζ (Homo sapiens (Human), UniProt Q13574); assay: DGKζ assay (detergent/lipid micelle substrate); type: biochemical
human DGKζ, sequence (Q13574 other isoform, or with tags, fused parts or gaps): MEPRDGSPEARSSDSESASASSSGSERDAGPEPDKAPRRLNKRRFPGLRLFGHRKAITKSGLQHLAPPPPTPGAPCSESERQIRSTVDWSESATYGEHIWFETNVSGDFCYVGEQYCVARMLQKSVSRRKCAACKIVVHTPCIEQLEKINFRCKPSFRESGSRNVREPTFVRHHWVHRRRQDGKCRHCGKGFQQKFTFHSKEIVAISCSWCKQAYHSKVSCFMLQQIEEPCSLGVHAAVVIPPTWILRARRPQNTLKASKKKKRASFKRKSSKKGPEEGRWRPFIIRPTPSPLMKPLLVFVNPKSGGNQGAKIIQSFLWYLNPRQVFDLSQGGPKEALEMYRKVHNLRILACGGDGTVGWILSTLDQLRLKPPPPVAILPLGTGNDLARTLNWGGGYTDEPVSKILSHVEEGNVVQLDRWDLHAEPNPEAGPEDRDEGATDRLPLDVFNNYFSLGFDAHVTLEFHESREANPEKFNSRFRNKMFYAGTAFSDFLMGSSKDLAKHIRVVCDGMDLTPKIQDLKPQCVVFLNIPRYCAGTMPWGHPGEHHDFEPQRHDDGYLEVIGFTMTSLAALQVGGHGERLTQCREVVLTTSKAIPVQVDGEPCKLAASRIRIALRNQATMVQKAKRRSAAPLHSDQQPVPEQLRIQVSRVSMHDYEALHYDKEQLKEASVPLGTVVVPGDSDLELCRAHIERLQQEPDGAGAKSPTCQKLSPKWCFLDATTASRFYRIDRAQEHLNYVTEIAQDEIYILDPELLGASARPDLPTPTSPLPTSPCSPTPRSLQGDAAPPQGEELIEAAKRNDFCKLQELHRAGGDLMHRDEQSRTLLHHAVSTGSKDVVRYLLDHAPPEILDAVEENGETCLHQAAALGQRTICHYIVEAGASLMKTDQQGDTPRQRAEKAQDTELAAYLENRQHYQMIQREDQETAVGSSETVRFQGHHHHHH
How it was run: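 Enzymes were baculovirus/Sf9 full-length human DGKα or DGKζ with His tag. The substrate was PS/DAG in octyl glucoside micelles, in MOPS pH 7.5 buffer with NaCl, MgCl2, CaCl2 and DTT.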

[1] = system: OT-1 antigen-specific CD8+ T cells with MC38 tumor cells; assay: Murine Cytotoxic T Lymphocyte Assay (IFN-γ); type: cell-based, mouse
Text: An antigen-specific cytolytic T-cell (CTL) assay was developed to evaluate functionally the ability of DGKα and DGKζ inhibitors to enhance effector T cell mediated tumor cell killing activity. CD8+ T-cells isolated from the OT-1 transgenic mouse recognize antigen presenting cells, MC38, that present the ovalbumin derived peptide […]. Recognition of the cognate antigen initiates the cytolytic activity of the OT-1 antigen-specific CD8+ T cells.
Functional CTL cells were generated as follows: OT-1 splenocytes from 8-12 week old mice were isolated and expanded in the presence of the […] peptide at 1 μg/mL and mIL2 at 10 U/mL. After three days, fresh media with mIL2 U/mL was added. On day 5 of the expansion, the CD8+ T cells were isolated and ready for use. Activated CTL cells may be stored frozen for 6 months. […] The cells were washed (3×) with fresh media to remove excess peptide. Finally, CTL cells that were pretreated with DGK inhibitors for 1 hour in a 96-well U bottom plate were combined with the antigen loaded MC38 tumor cells at a 1:10 ratio. The cells were then spun at 700 rpm for 5 min and placed in an incubator overnight at 37° C. After 24 hours, the supernatant was collected for analysis of IFN-γ cytokine levels by AlphaLisa purchased from Perkin Elmer.

[2] = detergent/lipid micelle substrate, read-out: DGKζ IC50
[3] = Mus musculus, MC-38, read-out: msCTL INF-γ IC50, murine CTL IFN-γ (table title reads INF-γ Whole Blood Normalized Agonist EC50)
[4] = read-out: msCTL INF-γ IC50, murine CTL IFN-γ (table title reads INF-γ Whole Blood Normalized Agonist EC50)

human DGKα, sequence (P23743 other isoform, or with tags, fused parts or gaps): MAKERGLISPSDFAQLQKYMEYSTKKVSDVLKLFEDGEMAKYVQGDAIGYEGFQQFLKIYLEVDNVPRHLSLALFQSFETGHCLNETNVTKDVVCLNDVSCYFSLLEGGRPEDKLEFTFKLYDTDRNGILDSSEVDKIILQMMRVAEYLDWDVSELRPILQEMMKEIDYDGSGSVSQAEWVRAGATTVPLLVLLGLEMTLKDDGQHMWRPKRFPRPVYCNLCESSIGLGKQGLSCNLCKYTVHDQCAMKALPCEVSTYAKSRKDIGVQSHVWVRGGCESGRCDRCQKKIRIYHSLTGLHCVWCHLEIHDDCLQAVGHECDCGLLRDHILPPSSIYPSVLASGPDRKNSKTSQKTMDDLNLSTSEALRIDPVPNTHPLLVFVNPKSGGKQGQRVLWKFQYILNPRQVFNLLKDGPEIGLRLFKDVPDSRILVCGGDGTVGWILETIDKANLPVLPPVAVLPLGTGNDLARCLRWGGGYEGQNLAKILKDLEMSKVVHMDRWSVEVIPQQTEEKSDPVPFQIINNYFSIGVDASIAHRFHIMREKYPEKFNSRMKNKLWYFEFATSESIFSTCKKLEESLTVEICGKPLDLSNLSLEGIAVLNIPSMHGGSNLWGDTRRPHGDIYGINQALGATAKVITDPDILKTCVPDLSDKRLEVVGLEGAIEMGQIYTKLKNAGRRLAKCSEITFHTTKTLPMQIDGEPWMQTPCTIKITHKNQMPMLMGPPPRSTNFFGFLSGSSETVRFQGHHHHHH

| SMILES | IC50 (human DGKα) [µM] | IC50 (human DGKζ; [2]) [µM] | IC50 [1, 3] [µM] | IC50 (human DGKζ; DGKζ IC50, detergent/lipid micelle substrate) [µM] | IC50 [1, 4] [µM] |
| --- | --- | --- | --- | --- | --- |
| C#CCn1c(=O)c([N+](=O)[O-])c(N2CCN(C(c3ccc(F)cc3)c3ccc(F)cc3O)CC2)c2nc(C#N)ccc21 (single isomer, unassigned) [Example 121, 8-(4-((4-fluoro-2-hydroxyphenyl)(4-fluorophenyl)methyl)piperazin-1-yl)-7-nitro-6-oxo-5-(prop-2-yn-1-yl)-5,6-dihydro-1,5-naphthyridine-2-carbonitrile] | 6.4 | 0.18 | 0.05 | – | – |
| Cn1c(=O)c(C#N)c(N2CCN(C(C)(C)c3ccc(F)cc3)CC2)c2nc(Cl)ccc21 [Example 425, 6-chloro-4-{4-[2-(4-fluorophenyl)propan-2-yl]piperazin-1-yl}-1-methyl-2-oxo-1,2-dihydro-1,5-naphthyridine-3-carbonitrile] | 20 | > 240 | 2.98 | – | – |
| Cc1ccc2c(n1)c(N1CCN(C(C)c3ccc(F)cc3)CC1)c(Br)c(=O)n2C (stereo not drawn) [Example 224, 3-bromo-4-(4-(1-(4-fluorophenyl)ethyl)piperazin-1-yl)-1,6-dimethyl-1,5-naphthyridin-2(1H)-one] | 0.14 | > 240 | 10 | – | – |
| Cc1ccc2c(n1)c(N1CCN(Cc3cccc(Cl)c3O)CC1)c(C#N)c(=O)n2C [Example 389, 4-{4-[(3-chloro-2-hydroxyphenyl)methyl]piperazin-1-yl}-1,6-dimethyl-2-oxo-1,2-dihydro-1,5-naphthyridine-3-carbonitrile] | 1.4 | 130 | 5.05 | – | – |
| CC(c1ccc(F)cc1)N1CCN(c2c([N+](=O)[O-])c(=O)n(C)c3ccc(C#N)nc23)CC1 (single isomer, unassigned) [Example 44, 8-(4-(1-(4-fluorophenyl)ethyl)piperazin-1-yl)-5-methyl-7-nitro-6-oxo-5,6-dihydro-1,5-naphthyridine-2-carbonitrile] | 0.37 | 8.9 | 0.13 | – | – |
| C#CCn1c(=O)c([N+](=O)[O-])c(N2CCN(C(C)c3ccc(F)cc3)CC2)c2nc(C#N)ccc21 (single isomer, unassigned) [Example 137, 8-(4-(1-(4-fluorophenyl)ethyl)piperazin-1-yl)-7-nitro-6-oxo-5-(prop-2-yn-1-yl)-5,6-dihydro-1,5-naphthyridine-2-carbonitrile] | 1.5 | – | – | 4.8 | 0.23 |
| C#CCn1c(=O)c([N+](=O)[O-])c(N2CCN(C(CC)c3ccc(F)cc3)CC2)c2nc(C#N)ccc21 (single isomer, unassigned) [Example 141, 8-{4-[1-(4-fluorophenyl)propyl]piperazin-1-yl}-7-nitro-6-oxo-5-(prop-2-yn-1-yl)-5,6-dihydro-1,5-naphthyridine-2-carbonitrile] | 0.58 | 8.9 | 0.29 | – | – |
| CCCCn1c(=O)c([N+](=O)[O-])c(N2CCN(C(c3ccccc3)c3ccccc3)CC2)c2ncccc21 [Example 177, 4-(4-benzhydrylpiperazin-1-yl)-1-butyl-3-nitro-1,5-naphthyridin-2(1H)-one] | > 240 | – | 10 | – | – |
| Cn1c(=O)c([N+](=O)[O-])c(N2CCN(CC(O)c3ccc(F)cc3)CC2)c2nc(C#N)ccc21 (stereo not drawn) [Example 36, 8-{4-[2-(4-fluorophenyl)-2-hydroxyethyl]piperazin-1-yl}-5-methyl-7-nitro-6-oxo-5,6-dihydro-1,5-naphthyridine-2-carbonitrile] | 6.8 | 68 | 10 | – | – |
| COc1cc(F)ccc1C(c1ccc(F)cc1)N1CCN(c2c(C#N)c(=O)n(C)c3ccc(C#N)nc23)CC1 (single isomer, unassigned) [Example 406, 8-{4-[(4-fluoro-2-methoxyphenyl)(4-fluorophenyl)methyl]piperazin-1-yl}-5-methy-6-oxo-5,6-dihydro-L5-naphthyridine-2,7-dicarbonitrile] | 13 | – | – | – | 0.16 |
| COc1cc(C#N)ccc1CN1CCN(c2c(C#N)c(=O)n(C)c3ccc(Cl)nc23)CC1 [Example 424, 6-chloro-4-{4-[(4-cyano-2-methoxyphenyl)methyl]piperazin-1-yl}-1-methyl-2-oxo-1,2-dihydro-1,5-naphthyridine-3-carbonitrile] | 1.4 | > 240 | 10 | – | – |
| Cn1c(=O)c([N+](=O)[O-])c(N2CCN(Cc3cccc4ccccc34)CC2)c2nc(C#N)ccc21 [Example 415, 5-methyl-8-{4-[(naphthalen-1-yl)methyl]piperazin-1-yl}-7-nitro-6-oxo-5,6-dihydro-1,5-naphthyridine-2-carbonitrile] | 0.65 | – | 10 | – | – |
| Cn1c(=O)c(C#N)c(N2CCN(C(c3ccc(F)cc3)C3CCC3)CC2)c2nc(Cl)ccc21 (single isomer, unassigned) [Example 382, 6-chloro-4-{4-[cyclobutyl(4-fluorophenyl)methyl]piperazin-1-yl}-1-methyl-2-oxo-1,2-dihydro-1,5-naphthyridine-3-carbonitrile] | 0.76 | – | – | – | – |
| Cn1c(=O)c(C#N)c(N2CCN(C(c3ccc(F)cc3)C3CCC3)CC2)c2nc(Cl)ccc21 (single isomer, unassigned) [Example 383, 6-chloro-4-{4-[cyclobutyl(4-fluorophenyl)methyl]piperazin-1-yl}-1-methyl-2-oxo-1,2-dihydro-1,5-naphthyridine-3-carbonitrile] | 0.22 | – | 10 | – | – |
| COc1cc(F)ccc1C(c1ccc(F)cc1)N1CCN(c2c(C#N)c(=O)n(C)c3ccc(C#N)nc23)CC1 (single isomer, unassigned) [Example 407, 8-{4-[(4-fluoro-2-methoxyphenyl)(4-fluorophenyl)methyl]piperazin-1-yl}-5-methy-6-oxo-5,6-dihydro-L5-naphthyridine-2,7-dicarbonitrile] | 0.96 | – | – | – | 0.04 |
| Cn1c(=O)c(C#N)c(N2CCN(C(CC(C)(C)C)c3ccc(F)cc3)CC2)c2nc(Cl)ccc21 (single isomer, unassigned) [Example 378, 6-chloro-4-{4-[1-(4-fluorophenyl)-3,3-dimethylbutyl]piperazin-1-yl}-1-methyl-2-oxo-1,2-dihydro-1,5-naphthyridine-3-carbonitrile] | 2.2 | – | 10 | – | – |
| CC(c1ccc(F)cc1)N1CCN(c2c(C#N)c(=O)n(C)c3ccc(Cl)nc23)CC1 (single isomer, unassigned) [Example 388, 6-chloro-4-{4-[1-(4-fluorophenyl)ethyl]piperazin-1-yl}-1-methyl-2-oxo-1,2-dihydro-1,5-naphthyridine-3-carbonitrile] | 0.051 | > 240 | – | – | – |
| Cn1c(=O)c(C#N)c(N2CCN(C(CC(C)(C)C)c3ccc(F)cc3)CC2)c2nc(Cl)ccc21 (single isomer, unassigned) [Example 377, 6-chloro-4-{4-[1-(4-fluorophenyl)-3,3-dimethylbutyl]piperazin-1-yl}-1-methyl-2-oxo-1,2-dihydro-1,5-naphthyridine-3-carbonitrile] | > 240 | – | – | – | – |
| COc1ccc2c(n1)c(N1CCN(C(c3ccc(F)cc3)c3ccc(F)cc3OC)CC1)c(C#N)c(=O)n2C (racemic) [Example 412, 4-{4-[(4-fluoro-2-methoxyphenyl)(4-fluorophenyl)methyl]piperazin-1-yl}-6-methoxy-1-methyl-2-oxo-1,2-dihydro-1,5-naphthyridine-3-carbonitrile] | 1.8 | – | 0.36 | – | – |
| CC(C)C(c1ccc(F)cc1)N1CCN(c2c(C#N)c(=O)n(C)c3ccc(Cl)nc23)CC1 (single isomer, unassigned) [Example 315, 6-chloro-4-{4-[1-(4-fluorophenyl)-2-methylpropyl]piperazin-1-yl}-methyl-2-oxo-1,2-dihydro-1,5-naphthyridine-3-carbonitrile] | > 240 | > 240 | – | – | – |
| CC(c1ccc(F)cc1)N1CCN(c2c(C#N)c(=O)n(C)c3ccc(Cl)nc23)CC1 (single isomer, unassigned) [Example 387, 6-chloro-4-{4-[1-(4-fluorophenyl)ethyl]piperazin-1-yl}-1-methyl-2-oxo-1,2-dihydro-1,5-naphthyridine-3-carbonitrile] | 0.27 | > 240 | – | – | – |
| Cn1c(=O)c(C#N)c(N2CCN(C(c3ccc(F)cc3)c3ccccc3O)CC2)c2nc(C#N)ccc21 (stereo not drawn) [Example 11, 8-{4-[(4-fluorophenyl)(2-hydroxyphenyl)methyl]piperazin-1-yl}-5-methyl-6-oxo-5,6-dihydro-1,5-naphthyridine-2,7-dicarbonitrile] | 1.8 | 4 | – | – | – |
